Data published in patent US9346770B2, “Compounds having activating effect on subtypes of peroxisome proliferator-activated receptors and its preparation method and uses” (ZHEJIANG HISUN PHARMACEUTICAL CO., LTD., priority 2010, dated 2016).

What was measured:
Type in all cases: cell-based
PPARα = PPARα (Homo sapiens (Human), UniProt Q07869); assay: Nuclear receptor reporter gene (luciferase) screening model, PPARα activation in HepG2 cells; settings: for Experiment results (relative activation fold) PPARα: HepG2, solvent control = 1; for EC50: HepG2 reporter gene, 6 concentrations; for activation effect on PPARα receptor (in words): screening results
Source text: (§1) Using a reporter gene method, a screening model for screening a nuclear receptor agonist in living cells is designed on the basis of the principal that a nuclear receptor can activate transcription of its downstream gene after being activated. A reporter gene plasmid is constructed, in which the DNA binding sequence for the nuclear receptor (NRE) is inserted at the upstream of a luciferase gene, such that the expression of the luciferase gene is regulated by the nuclear receptor. The reporter gene plasmid is transferred into a cell simultaneously with the nuclear receptor. The nuclear receptor will be activated when a nuclear receptor agonist presents in the cell culture medium. The receptor being activated can induce the expression of the luciferase gene, while the amount of generated luciferase can be determined with its luminescent substrate. In this way, the intensity of activation of the nuclear receptor by the compound can be determined by observing the luminescence intensity. For the calibration of the experimental error caused by factors such as transfection efficiency, amount of inoculated cells, toxicity of the compound, etc, a GFP plasmid is co-transfected simultaneously as the internal reference. In the analysis of the experimental results, the luminescent values tested for all wells are calibrated with GFP values. The experimental results are expressed as relative activation fold, with a value of 1 for the solvent control. The greater the fold is, the higher the activation capacity represents.
(§2) The detailed procedure is described as follows:
(§3) Hepatocarcinoma cell HepG2 (from ATCC, American Type Culture Collection) was cultured in a DMEM medium supplemented with 10% heat-inactivated fetal bovine serum (FBS, Invitogen, Grand Island, N.Y., USA) in a T-75 culture flask (Greiner, Germany) placed in a 5% CO2 incubator at 37° C. and 100% relative humidity.
(§4) On the next day, when the cells in the 96-well culture plate grew up to 50-80% confluency, cell transfection was performed. The cell co-transfection system comprised FuGene6 transfection agent (Roche Molecular Biochemicals, Indianapolis, Ind., U.S.A.) and 60 ng DNA (10 ng hRXR, 10 ng pCMV βGal, 10 ng nuclear receptor expression plasmid RXR/PPARα, δ, γ, 30 ng GFP fluorescence reporter gene plasmid, respectively).
(§5) The cell culture medium was discarded immediately after 24 hours of transfection and replaced by 200 μl fresh DMEM medium containing the test medicament (with 10% FBS treated by activated carbon). The final concentration gradients of the test medicament were 10 μM, 5 μM, 1 μM, 0.1 μM, 0.01 μM, 0.001 μM, and 0 μM. 0.05 μM 2-bromostearic acid (purchased from Sigma, USA) was used as the positive control. The final concentration of DMSO in each well was 0.1%.
(§6) After 24 h treatment with the medicament, the cells were lysed with a lysis solution (Cell Culture Lysis buffer, Promega) and centrifuged, and the supernatant was collected. The supernatant was reacted with a fluorescence assay kit (Promega) and counted by a fluorometer (Ascent Fluoroskan FL reader, Thermo Labsystems, Finland), and the relative intensity of luciferase was determined. For the assay of the β-galactosidase activity used in the experiment as the internal reference (the internal reference for calibrating the transfection efficiency), 50 μl of the supernatant was transferred into a fresh microplate, treated with a Promega kit, and the value was read with a microplate reader at a wavelength of 405 nm (Bio-tech Instruments Inc., Winooski, Vt., USA) (Sauerberg, P.; Olsen, G. S.; Jeppesen, L.; Mogensen, J. P. et al., J. Med. Chem., 2007, 50, 1495-1503).
(§7) In the present screening protocol, it was calculated according to the activation of the receptor by the sample at 6 different concentrations.
(§8) The concentration-activity profile of the effects of a compound was fitted by carrying out iterative computation according to the following formula, and corresponding EC50 was calculated: […]

PPARγ = PPARγ (Homo sapiens (Human), UniProt P37231); assay: Nuclear receptor reporter gene (luciferase) screening model, PPARγ activation in HepG2 cells; settings: for Experiment results (relative activation fold) PPARγ: HepG2, solvent control = 1; for EC50: HepG2 reporter gene, 6 concentrations; for activation effect on PPARγ receptor (in words): screening results
Source text: as §1, §2, §3, §4, §5, §6, §7, §8

PPARδ = PPARδ (Homo sapiens (Human), UniProt Q03181); assay: Nuclear receptor reporter gene (luciferase) screening model, PPARδ activation in HepG2 cells; settings: for Experiment results (relative activation fold) PPARδ: HepG2, solvent control = 1; for EC50: HepG2 reporter gene, 6 concentrations; for activation effect on PPARδ receptor (in words): screening results
Source text: as §1, §2, §3, §4, §5, §6, §7, §8

Chain of PPARδ (Q03181 whole entry, species assumed): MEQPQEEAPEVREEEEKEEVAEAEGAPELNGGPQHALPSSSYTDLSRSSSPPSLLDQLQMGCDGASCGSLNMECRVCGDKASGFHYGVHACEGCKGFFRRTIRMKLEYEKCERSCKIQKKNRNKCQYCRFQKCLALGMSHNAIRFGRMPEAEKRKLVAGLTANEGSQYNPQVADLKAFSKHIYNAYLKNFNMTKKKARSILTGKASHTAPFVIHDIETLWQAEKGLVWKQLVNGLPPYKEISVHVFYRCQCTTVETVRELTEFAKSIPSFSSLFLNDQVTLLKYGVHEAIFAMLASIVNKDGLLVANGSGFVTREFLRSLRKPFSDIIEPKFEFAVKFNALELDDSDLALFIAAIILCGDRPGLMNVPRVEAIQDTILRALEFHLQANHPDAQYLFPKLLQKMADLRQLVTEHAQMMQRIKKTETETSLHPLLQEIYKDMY
Chain of PPARδ (P19793 whole entry partner, species assumed): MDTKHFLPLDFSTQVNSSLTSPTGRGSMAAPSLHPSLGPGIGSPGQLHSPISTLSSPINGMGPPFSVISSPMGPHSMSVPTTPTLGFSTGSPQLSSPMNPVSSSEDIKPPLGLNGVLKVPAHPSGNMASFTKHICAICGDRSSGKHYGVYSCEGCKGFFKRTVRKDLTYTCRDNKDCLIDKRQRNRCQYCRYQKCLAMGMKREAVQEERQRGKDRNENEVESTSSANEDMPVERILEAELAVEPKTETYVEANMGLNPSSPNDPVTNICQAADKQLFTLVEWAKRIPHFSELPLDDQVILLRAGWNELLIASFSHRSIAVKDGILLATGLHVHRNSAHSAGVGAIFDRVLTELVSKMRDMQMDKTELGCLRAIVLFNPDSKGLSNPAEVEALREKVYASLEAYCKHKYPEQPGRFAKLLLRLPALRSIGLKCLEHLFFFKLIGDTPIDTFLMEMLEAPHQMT
Chain of PPARγ (P37231 whole entry, species assumed): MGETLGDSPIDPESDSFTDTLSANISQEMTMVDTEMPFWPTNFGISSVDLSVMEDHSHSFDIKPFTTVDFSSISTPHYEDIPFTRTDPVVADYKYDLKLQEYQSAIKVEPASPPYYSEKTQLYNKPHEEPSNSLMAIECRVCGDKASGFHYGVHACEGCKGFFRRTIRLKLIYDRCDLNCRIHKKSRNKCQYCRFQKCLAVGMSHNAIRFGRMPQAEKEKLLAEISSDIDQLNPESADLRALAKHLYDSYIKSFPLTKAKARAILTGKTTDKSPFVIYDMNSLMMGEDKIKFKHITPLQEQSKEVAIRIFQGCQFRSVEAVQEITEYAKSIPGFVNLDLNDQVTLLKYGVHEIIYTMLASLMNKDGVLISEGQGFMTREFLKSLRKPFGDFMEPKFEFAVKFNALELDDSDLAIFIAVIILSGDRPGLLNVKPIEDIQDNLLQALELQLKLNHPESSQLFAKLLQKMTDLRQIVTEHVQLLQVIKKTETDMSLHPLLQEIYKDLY
Chain of PPARγ (P19793 whole entry partner, species assumed): as the sequence (P19793 whole entry partner, species assumed) above
Chain of PPARα (Q07869 whole entry, species assumed): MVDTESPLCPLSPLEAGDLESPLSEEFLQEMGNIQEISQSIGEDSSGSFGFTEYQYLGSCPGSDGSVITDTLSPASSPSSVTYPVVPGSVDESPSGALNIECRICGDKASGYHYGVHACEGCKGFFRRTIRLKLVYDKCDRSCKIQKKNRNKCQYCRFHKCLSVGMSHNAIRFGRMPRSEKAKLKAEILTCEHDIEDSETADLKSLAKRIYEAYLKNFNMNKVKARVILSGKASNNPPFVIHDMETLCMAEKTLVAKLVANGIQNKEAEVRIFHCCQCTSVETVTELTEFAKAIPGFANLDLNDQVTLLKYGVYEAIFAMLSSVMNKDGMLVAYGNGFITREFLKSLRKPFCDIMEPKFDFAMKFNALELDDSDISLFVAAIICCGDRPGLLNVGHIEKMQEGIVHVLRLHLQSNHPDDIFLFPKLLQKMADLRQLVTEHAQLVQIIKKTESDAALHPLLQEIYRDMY
Chain of PPARα (P19793 whole entry partner, species assumed): as the sequence (P19793 whole entry partner, species assumed) above

Experiment results (relative activation fold) PPARα (PPARα; 0.001 uM) [fold] | Experiment results (relative activation fold) PPARα (PPARα; 0.01 uM) [fold] | Experiment results (relative activation fold) PPARα (PPARα; 0.1 uM) [fold] | Experiment results (relative activation fold) PPARα (PPARα; 1 uM) [fold] | Experiment results (relative activation fold) PPARα (PPARα; 5 uM) [fold] | Experiment results (relative activation fold) PPARα (PPARα; 10 uM) [fold] | EC50 (PPARα) [nM] | Experiment results (relative activation fold) PPARγ (PPARγ; 0.001 uM) [fold] | Experiment results (relative activation fold) PPARγ (PPARγ; 0.01 uM) [fold] | Experiment results (relative activation fold) PPARγ (PPARγ; 0.1 uM) [fold] | Experiment results (relative activation fold) PPARγ (PPARγ; 1 uM) [fold] | Experiment results (relative activation fold) PPARγ (PPARγ; 5 uM) [fold] | Experiment results (relative activation fold) PPARγ (PPARγ; 10 uM) [fold] | EC50 (PPARγ) [nM] | Experiment results (relative activation fold) PPARδ (PPARδ; 0.001 uM) [fold] | Experiment results (relative activation fold) PPARδ (PPARδ; 0.01 uM) [fold] | Experiment results (relative activation fold) PPARδ (PPARδ; 0.1 uM) [fold] | Experiment results (relative activation fold) PPARδ (PPARδ; 1 uM) [fold] | Experiment results (relative activation fold) PPARδ (PPARδ; 5 uM) [fold] | Experiment results (relative activation fold) PPARδ (PPARδ; 10 uM) [fold] | also measured | Structure (SMILES)
1.14 | 1.20 | 1.18 | 1.65 | 2.31 | 2.96 | 5500 | 2.70 | 3.78 | 3.81 | 5.17 | 4.19 | 5.88 | 89 | 1.45 | 1.53 | 2.25 | 3.51 | 4.22 | 4.60 | EC50 (PPARδ): 851 nM | CCc1cc(OCCc2nc(-c3ccc(C(C)(C)C)cc3)oc2C)ccc1CCC(=O)O [Compound 4]
1.33 | 1.45 | 1.37 | 1.58 | 1.98 | 1.91 | 1180 | 1.98 | 2.99 | 3.75 | 3.95 | 3.82 | 4.11 | 4 | 1.57 | 2.44 | 3.61 | 3.69 | 3.57 | 4.64 | activation effect on PPARα receptor (in words) (PPARα): better activation effects; activation effect on PPARγ receptor (in words) (PPARγ): better activation effects; EC50 (PPARδ): 7 nM; activation effect on PPARδ receptor (in words) (PPARδ): better activation effects | CCc1cc(OCCc2nc(-c3ccc(C)cc3)oc2C)ccc1CCC(=O)O [Compound 5]
0.99 | 1.11 | 1.19 | 1.28 | 1.33 | 1.79 | 4 | 1.10 | 1.30 | 1.32 | 1.56 | 1.78 | 2.06 | 5 | 1.11 | 1.17 | 1.22 | 1.34 | 1.50 | 1.94 | activation effect on PPARα receptor (in words) (PPARα): better activation effects; activation effect on PPARγ receptor (in words) (PPARγ): better activation effects; EC50 (PPARδ): < 1 nM; activation effect on PPARδ receptor (in words) (PPARδ): better activation effects | CCc1cc(OCCc2nc(-c3ccc(C(F)(F)F)cc3)oc2C)ccc1CCC(=O)O [Compound 3]
